Test [1] concerns Caco-2. The test can be described thus: Proliferation assay (crystal violet), Caco-2. Type of test: cell-based. To be noted: Homo sapiens, 96 h; Caco-2 cells; 4 days incubation; crystal violet staining; read-out: IC50 inhibition of proliferation, Caco2. In outline: (§1)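 Cells plated at 1000-5000/well with 10% FCS, treated after 24 h with compound at 0.001-10 μM (0.5% DMSO) for 4 days. Glutaraldehyde-fixed, crystal violet-stained, A595 normalised to zero-point plate (0%) and untreated cells (100%); IC50 by 4-parameter fit.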

Test [2] deals with DU145. The test can be described thus: Proliferation assay (crystal violet), DU145. The format is cell-based. The note with it: Homo sapiens, DU-145, 96 h; DU145 cells; 4 days incubation; crystal violet staining; read-out: IC50 inhibition of proliferation, DU145. In outline:
as §1

Test [3] has as its target T1, catalytic domain of human Bub1 (amino acids 704-1085) (Homo sapiens, UniProt O43683).
T1 construct: catalytic domain of human Bub1 (amino acids 704-1085); His6 (N); made in house; host or cells: insect cells (Hi5)
Description: Bub1 kinase assay (TR-FRET). The format is biochemical. The note with it: 10 μM ATP, avg, read-out: Bub1 avg (IC50 [mol/l]). In outline: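 Readout is the 665/620 nm TR-FRET ratio from anti-phosphoserine antibody, Eu-labelled anti-mouse IgG and streptavidin-XL665, scaled between no-enzyme and uninhibited controls. Reaction: 1 μM biotinylated peptide, 10 μM ATP, 60 min, 22 °C, after 15 min compound preincubation with His6-Bub1 (704-1085, insect-expressed, ~200 ng/ml).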
(In general: TR-FRET usually uses a lanthanide donor and a delayed reading to cut background.)

The subject of test [4] is HeLa-MaTu-ADR. Description: Proliferation assay (crystal violet), HeLa-MaTu-ADR. The format is cell-based. To be noted: 96 h; HeLa-MaTu-ADR cells; 4 days incubation; crystal violet staining; read-out: IC50 inhibition of proliferation, HeLa-MaTu-ADR. The gist of the method:
as §1

In test [5] the test system is NCI-H460. The test can be described thus: Proliferation assay (crystal violet), NCI-H460. Type of test: cell-based. The note with it: Homo sapiens, 96 h; NCI-H460 cells; 4 days incubation; crystal violet staining; read-out: IC50 inhibition of proliferation, NCI-H460. In outline:
as §1

The subject of test [6] is B16F10. The test can be described thus: Proliferation assay (crystal violet), B16F10. The format is cell-based. To be noted: Mus musculus, B16-F10, 96 h; B16F10 cells; 4 days incubation; crystal violet staining; read-out: IC50 inhibition of proliferation, B16F10. In outline: as §1

T1 sequence (O43683 704-1085): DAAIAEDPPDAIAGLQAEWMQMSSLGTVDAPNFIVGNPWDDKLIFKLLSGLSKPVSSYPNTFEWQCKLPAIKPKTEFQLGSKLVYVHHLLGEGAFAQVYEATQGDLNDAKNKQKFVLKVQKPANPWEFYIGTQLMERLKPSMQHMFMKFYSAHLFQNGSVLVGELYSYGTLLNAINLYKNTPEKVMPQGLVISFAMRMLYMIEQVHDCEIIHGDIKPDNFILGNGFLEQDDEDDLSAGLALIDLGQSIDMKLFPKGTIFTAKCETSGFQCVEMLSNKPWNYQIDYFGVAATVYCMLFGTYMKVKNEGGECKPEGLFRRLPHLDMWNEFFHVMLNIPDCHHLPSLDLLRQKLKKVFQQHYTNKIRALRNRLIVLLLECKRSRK

For the molecule `Cc1nsc(Nc2ccc(C#N)cn2)c1C(=O)Nc1ccc(OC2CCN(CC(F)(F)F)CC2)nc1` [Example 30, 5-[(5-Cyanopyridin-2-yl)amino]-3-methyl-N-(6-{[1-(2,2,2-trifluoroethyl)piperidin-4-yl]oxy}pyridin-3-yl)-1,2-thiazole-4-carboxamide], the IC50 in test [1] is 350 nM; in test [2] it was 640 nM; in test [3], at least 20000 nM; in test [4], 230 nM; in test [5] it was 310 nM; in test [6], 390 nM.

As for `Cc1nsc(Nc2cnc3ccccc3n2)c1C(=O)Nc1ccc(OC2CCCN(C(=O)OC(C)(C)C)C2)nc1` (centres unmarked) [Example 31, tert-Butyl 3-{[5-({[3-methyl-5-(quinoxalin-2-ylamino)-1,2-thiazol-4-yl]carbonyl}-amino)pyridin-2-yl]oxy}piperidine-1-carboxylate], the IC50 was 1100 nM in test [1]; 3000 nM in test [2]; at least 20000 nM in test [3]; 880 nM in test [4]; 730 nM in test [5]; 950 nM in test [6]. Consider `CCCN1CC[C@@H](Oc2ccc(NC(=O)c3c(C)nsc3Nc3cnc(C(F)(F)F)cn3)cn2)[C@H](F)C1` [Example 371, N-(6-{[(3R,4R)-3-fluoro-1-propylpiperidin-4-yl]oxy}pyridin-3-yl)-3-methyl-5-{[5-(trifluoromethyl)pyrazin-2-yl]amino}-1,2-thiazole-4-carboxamide], for which the IC50 in test [3] is over 20000 nM. With `Cc1nsc(Nc2cnc(C(F)(F)F)cn2)c1C(=O)Nc1ccc(F)c(OCC2CCCN(CCF)C2)c1` (centres unmarked) [Example 336, N-(4-fluoro-3-{[1-(2-fluoroethyl)piperidin-3-yl]methoxy}phenyl)-3-methyl-5-{[5-(trifluoromethyl)pyrazin-2-yl]amino}-1,2-thiazole-4-carboxamide], the IC50 in test [3] is at least 20000 nM.

`Cc1nsc(Nc2ccc(C#N)cn2)c1C(=O)Nc1ccc(OC2CCN(CCF)CC2)nc1` [Example 29, 5-[(5-Cyanopyridin-2-yl)amino]-N-(6-{[1-(2-fluoroethyl)piperidin-4-yl]oxy}pyridin-3-yl)-3-methyl-1,2-thiazole-4-carboxamide]: the IC50 in test [3] is at least 20000 nM. Turning to `Cc1nsc(Nc2cnc(C(F)(F)F)cn2)c1C(=O)Nc1ccc(O[C@H]2CCN(CC(F)(F)F)C[C@@H]2F)nc1` [Example 363, N-(6-{[(3S,4S)-3-fluoro-1-(2,2,2-trifluoroethyl)piperidin-4-yl]oxy}pyridin-3-yl)-3-methyl-5-{[5-(trifluoromethyl)pyrazin-2-yl]amino}-1,2-thiazole-4-carboxamide], the IC50 in test [3] is over 20000 nM.

As for `Cc1nsc(Nc2cnc(C(F)(F)F)cn2)c1C(=O)Nc1ccc(F)c(OC[C@H]2CCN(CC(F)(F)F)C2)c1` [Example 398, N-(4-fluoro-3-{[(3S)-1-(2,2,2-trifluoroethyl)pyrrolidin-3-yl]methoxy}phenyl)-3-methyl-5-{[5-(trifluoromethyl)pyrazin-2-yl]amino}-1,2-thiazole-4-carboxamide], the IC50 in test [3] is over 20000 nM. In the case of `Cc1nsc(Nc2cnc(C(F)(F)F)cn2)c1C(=O)Nc1ccc(O[C@@H]2CCN(CCC(F)(F)F)C[C@H]2F)nc1` [Example 368, N-(6-{[(3R,4R)-3-fluoro-1-(3,3,3-trifluoropropyl)piperidin-4-yl]oxy}pyridin-3-yl)-3-methyl-5-{[5-(trifluoromethyl)pyrazin-2-yl]amino}-1,2-thiazole-4-carboxamide], the IC50 in test [3] is over 20000 nM. In the case of `Cc1nsc(Nc2cnc(C(F)(F)F)cn2)c1C(=O)Nc1ccc(O[C@@H]2CCCN(CC(F)(F)F)C2)nc1` [Example 386, 3-methyl-N-(6-{[(3R)-1-(2,2,2-trifluoroethyl)piperidin-3-yl]oxy}pyridin-3-yl)-5-{[5-(trifluoromethyl)pyrazin-2-yl]amino}-1,2-thiazole-4-carboxamide], the IC50 in test [3] was over 20000 nM. Regarding `Cc1nsc(Nc2cnc(C(F)(F)F)cn2)c1C(=O)Nc1ccc(OC2CCCN(C(CF)CF)C2)nc1` (centres unmarked) [Example 333, N-(6-{[1-(1,3-difluoropropan-2-yl)piperidin-3-yl]oxy}pyridin-3-yl)-3-methyl-5-{[5-(trifluoromethyl)pyrazin-2-yl]amino}-1,2-thiazole-4-carboxamide], the IC50 in test [3] was at least 20000 nM. The same measure, in the same setting: to `Cc1nsc(Nc2cnc(C(F)(F)F)cn2)c1C(=O)Nc1ccc(N2CCN(CCC(F)(F)F)CC2)cn1` [Example 374, 3-methyl-5-{[5-(trifluoromethyl)pyrazin-2-yl]amino}-N-{5-[4-(3,3,3-trifluoropropyl)piperazin-1-yl]pyridin-2-yl}-1,2-thiazole-4-carboxamide] belongs over 20000 nM; to `CCCCN1CCC(COc2ccc(NC(=O)c3c(C)nsc3Nc3cnc(C(F)(F)F)cn3)cn2)C(F)(F)C1` (centres unmarked) [Example 396, N-{6-[(1-butyl-3,3-difluoropiperidin-4-yl)methoxy]pyridin-3-yl}-3-methyl-5-{[5-(trifluoromethyl)pyrazin-2-yl]amino}-1,2-thiazole-4-carboxamide], over 20000 nM; to `Cc1nsc(Nc2cnc(C(F)(F)F)cn2)c1C(=O)Nc1ccc(OCC2CCN(CC(F)(F)F)CC2(F)F)nc1` (centres unmarked) [Example 392, N-(6-{[3,3-difluoro-1-(2,2,2-trifluoroethyl)piperidin-4-yl]methoxy}pyridin-3-yl)-3-methyl-5-{[5-(trifluoromethyl)pyrazin-2-yl]amino}-1,2-thiazole-4-carboxamide], over 20000 nM. In the case of `Cc1nsc(Nc2cnc(C(F)(F)F)cn2)c1C(=O)Nc1ccc(C2CCN(CC(F)(F)F)CC2)nc1` [Example 358, 3-methyl-N-{6-[1-(2,2,2-trifluoroethyl)piperidin-4-yl]pyridin-3-yl}-5-{[5-(trifluoromethyl)pyrazin-2-yl]amino}-1,2-thiazole-4-carboxamide], in test [3], the IC50 is over 20000 nM. `Cc1nsc(Nc2cnc(C(F)(F)F)cn2)c1C(=O)Nc1ccc(N2CCN(CCC(F)(F)F)CC2)nc1` [Example 361, 3-methyl-5-{[5-(trifluoromethyl)pyrazin-2-yl]amino}-N-{6-[4-(3,3,3-trifluoropropyl)piperazin-1-yl]pyridin-3-yl}-1,2-thiazole-4-carboxamide]: the IC50 in test [3] was over 20000 nM. On the same count and under the same terms, to `Cc1nsc(Nc2cnc(C(F)(F)F)cn2)c1C(=O)Nc1ccc(OC[C@@H]2CCCN(CC(F)F)C2)nc1` [Example 375, N-(6-{[(3R)-1-(2,2-difluoroethyl)piperidin-3-yl]methoxy}pyridin-3-yl)-3-methyl-5-{[5-(trifluoromethyl)pyrazin-2-yl]amino}-1,2-thiazole-4-carboxamide] belongs over 20000 nM.

Values taken from patent US20170334899A1, “AMINO-SUBSTITUTED ISOTHIAZOLES” (Bayer Pharma Aktiengesellschaft, priority 2014, published 2017).
